# In US9012441B2, “Therapeutic compounds” (Gilead Sciences, Inc., priority 2013, dated 2015):
# Like-named read-outs stand apart in the source and are kept apart here.
# Columns and labels:
# HIV-IIIb = assay: Test A: Antiviral Assay in MT4 Cells; format: cell-based, HIV-1; conditions: Human immunodeficiency virus 1, MT4, 120 h, read-out: % Inh @ 2 uM (percent inhibition of virus-induced cell killing); 2 uM test compound; MT-4 cells infected with HIV-IIIb, 5 days, CellTiter-Glo
# Method: (§1) Test A: Antiviral Assay in MT4 Cells For the antiviral assay, 40 μL of 1× test concentration of 3-fold serially diluted compound in culture medium with 10% FBS was added to each well of a 384-well plate (10 concentrations) in quadruplicate. MT-4 cells were next mixed with HIV-IIIb at an m.o.i of 0.003 for 1 hour, after which time 35 μL of virus/cell mixture (2000 cells) was immediately added to each well containing 40 μL of diluted compound. The plates were then incubated at 37° C. for 5 days. After 5 days of incubation, 25 μl of 2× concentrated CellTiter-Glo™ Reagent (catalog #G7571, Promega Biosciences, Inc., Madison, Wis.) was added to each well containing MT-4 cells. Cell lysis was carried out by incubating at room temperature for 10 min and then chemiluminescence was read. […] Accordingly, the compounds disclosed herein may be useful for treating an HIV virus infection, treating AIDS or for delaying the onset of AIDS or ARC symptoms.
# [1] = Test B: Cytotoxicity Assay (uninfected MT-4 cells); format: cell-based; conditions: human, same protocol as Test A, read-out: MT4-CC50
# Method: as §1, with “For” for “Test A: Antiviral Assay in MT4 Cells For”, “Test B: Cytotoxicity Assay Compound cytotoxicity and” for “Accordingly,”, “corresponding CC50 values were determined using” for “compounds disclosed herein may be useful for treating an HIV virus infection, treating AIDS or for delaying”, “same protocol as described in the antiviral assay (Test A) except that uninfected cells were used.” for “onset of AIDS or ARC symptoms.”
SMILES,inhibition at 2 µM (HIV-IIIb),CC50 at 5 days [1],also measured
"COc1ccc(N(C)C(=O)[C@@H]2Cc3cccc(c3)CSCc3[nH]c4ccccc4c3CC(=O)N2)cc1 [Example 15, (10S)—N-(4-methoxyphenyl)-N-methyl-12-oxo-9,10,11,12,13,18-hexahydro-1H-8,4-(metheno)[1,7]thiazacyclopentadecino[3,4-b]indole-10(3H)-carboxamide]",95.8%,> 51.4 µM,"ring closure, yield of all isomers (from COc1ccc(N(C)C(=O)[C@@H](N)Cc2cccc(CSCc3[nH]c4ccccc4c3CC(=O)O)c2)cc1, amide bond, DPPA, DIPEA, DMF, 3.01 mM, 25.0 °C, 16.0 h): 49.1%"
COC(=O)[C@@H]1Cc2cccc(c2)C/C=C/c2[nH]c3ccc(OC)nc3c2CC(=O)N1,,,"ring closure, yield of all isomers (from C=CCc1cccc(C[C@H](NC(=O)Cc2c(Br)n(C(=O)OC(C)(C)C)c3ccc(OC)nc23)C(=O)OC)c1, cc_pd bond, Pd(OAc)2, DMF, 2.46 mM, 120.0 °C, 5.0 h): 33.3%"
"COc1ccc(N(C)C(=O)[C@@H]2Cc3cccc(c3)CSc3[nH]c4ccccc4c3CC(=O)N2)cc1 [Example 20, (9S)—N-(4-methoxyphenyl)-N-methyl-11-oxo-8,9,10,11,12,17-hexahydro-7,3-(metheno)[1,6]thiazacyclotetradecino[2,3-b]indole-9(2H)-carboxamide]",97.7%,45.2 µM,"ring closure, yield of all isomers (from COc1ccc(N(C)C(=O)[C@@H](N)Cc2cccc(CSc3[nH]c4ccccc4c3CC(=O)O)c2)cc1, amide bond, DPPA, DIPEA, DMF, 3.0 mM, 25.0 °C, 16.0 h): 65.8%"
COc1ccc(N(C)C(=O)[C@@H]2Cc3cccc(c3)/C=C/Cc3c(c4ccccc4n3C(=O)OC(C)(C)C)CC(=O)N2)cc1,,,"ring closure, yield of all isomers (from C=CCc1c(CC(=O)N[C@@H](Cc2cccc(I)c2)C(=O)N(C)c2ccc(OC)cc2)c2ccccc2n1C(=O)OC(C)(C)C, cc_pd bond, Pd2(dba)3, acetonitrile, 19.6 mM, 82.0 °C): 57.4%"
"COc1ccc(N(C)C(=O)[C@@H]2Cc3cccc(c3)SCc3[nH]c4ccccc4c3CC(=O)N2)cc1 [Example 18, (9S)—N-(4-methoxyphenyl)-N-methyl-11-oxo-8,9,10,11,12,17-hexahydro-1H-7,3-(metheno)[1,7]thiazacyclotetradecino[3,4-b]indole-9-carboxamide]",47.3%,> 53 µM,"ring closure, yield of all isomers (from COc1ccc(N(C)C(=O)[C@@H](N)Cc2cccc(SCc3[nH]c4ccccc4c3CC(=O)O)c2)cc1, amide bond, DPPA, DIPEA, DMF, 3.01 mM, 25.0 °C, 16.0 h): 65.5%"
CN(C(=O)N1Cc2cc(F)cc(c2)/C=C\Cc2c(c3ccccc3n2C(=O)OC(C)(C)C)CC(=O)N1)c1ccc(Cl)cc1,,,"ring closure, yield of all isomers (from C=CCc1c(CC(=O)NN(Cc2cc(F)cc(Br)c2)C(=O)N(C)c2ccc(Cl)cc2)c2ccccc2n1C(=O)OC(C)(C)C, cc_pd bond, Pd(OAc)2, acetonitrile, 3.1 mM, 110.0 °C, 1.0 h): 23.6%"
"COc1ccc(N(C)C(=O)[C@@H]2Cc3cccc(c3)CCCc3[nH]c4ccccc4c3CC(=O)N2)cc1 [Example 1, (4S)—N-(4-methoxyphenyl)-N-methyl-2-oxo-2,3,4,5,11,12,13,14-octahydro-1H-6,10-(metheno)azacyclopentadecino[5,4-b]indole-4-carboxamide]",103%,> 50.3 µM,"ring closure, yield of all isomers (from COc1ccc(N(C)C(=O)[C@@H](N)Cc2cccc(CCCc3[nH]c4ccccc4c3CC(=O)O)c2)cc1, amide bond, DPPA, DIPEA, DMF, 2.99 mM, 25.0 °C, 16.0 h): 23.9%"
CN(C(=O)[C@@H]1Cc2cccc(c2)CCCc2cc(C(F)(F)F)nn2CC(=O)N1)c1ccc(Cl)cc1 [Example 32],72.3%,22.5 µM,"ring closure, yield of all isomers (from C=CCc1cc(C(F)(F)F)nn1CC(=O)N[C@@H](Cc1cccc(Br)c1)C(=O)N(C)c1ccc(Cl)cc1, cc_pd bond, Pd(OAc)2 / 2-di-tert-butylphosphino-2'-(N,N-dimethylamino)biphenyl / triethylamine, DMF, 2.81 mM, 120.0 °C, 2 steps): 15%"
"COc1ccc(N(C)C(=O)[C@@H]2Cc3cccc(c3)CCSCc3[nH]c4ccccc4c3CC(=O)N2)cc1 [Example 5, (11S)—N-(4-methoxyphenyl)-N-methyl-13-oxo-3,4,10,11,12,13,14,19-octahydro-1H-9,5-(metheno)[1,7]thiazacyclohexadecino[3,4-b]indole-11-carboxamide]",33.4%,49.5 µM,"ring closure, yield of all isomers (from COc1ccc(N(C)C(=O)[C@@H](N)Cc2cccc(CCSCc3[nH]c4ccccc4c3CC(=O)O)c2)cc1, amide bond, DPPA, DIPEA, DMF, 2.95 mM, 25.0 °C, 16.0 h): 65.8%"
